Results published in BindingDB's records for doi:10.1021/jm00020a029 (Merck Research Laboratories, 1995).
Where a SMILES comes first, the peptide text is derived from it. [ ]: non-standard residue; d: D form. Phe(3,4-Cl2) = N[C@@H](Cc1ccc(Cl)c(Cl)c1)C(=O)O; Phe(4-Cl) = N[C@@H](Cc1ccc(Cl)cc1)C(=O)O; Phe(4-F) = N[C@@H](Cc1ccc(F)cc1)C(=O)O; hArg = N=C(N)NCCCC[C@H](N)C(=O)O; Cha = N[C@@H](CC1CCCCC1)C(=O)O; Phg = N[C@H](C(=O)O)c1ccccc1; Aib = CC(C)(N)C(=O)O; GABA = NCCCC(=O)O

Experiment: Evaluated for the activation of human thrombin receptor measured by platelet aggregation

Point of comparison: `CC(C)C[C@H](NC(=O)[C@H](CC(C)C)NC(=O)[C@H](Cc1ccc(Cl)c(Cl)c1)NC(=O)[C@H](C)N)C(=O)N[C@@H](CCCNC(=N)N)C(N)=O` [(S)-2-[(S)-2-((S)-2-Amino-propionylamino)-3-(3,4-dichloro-phenyl)-propionylamino]-4-methyl-pentanoic acid [(S)-1-((S)-1-carbamoyl-4-guanidino-butylcarbamoyl)-3-methyl-butyl]-amide] (H-A[Phe(3,4-Cl2)]LLR-NH2), EC50 0.5 µM. Against it:
- CC(C)C[C@H](NC(=O)[C@H](CC(C)C)NC(=O)[C@H](Cc1ccccc1)NC(=O)[C@@H](N)CO)C(=O)N[C@@H](CCCN=C(N)N)C(=O)N[C@@H](CC(N)=O)C(=O)N1CCC[C@H]1C(N)=O [1-{(S)-2-[(S)-2-((S)-2-{(S)-2-[(S)-2-((S)-2-Amino-3-hydroxy-propionylamino)-3-phenyl-propionylamino]-4-methyl-pentanoylamino}-4-methyl-pentanoylamino)-5-guanidino-pentanoylamino]-3-carbamoyl-propionyl}-pyrrolidine-2-carboxylic acid amide] (H-SFLLRNP-NH2) — the same, 0.5 µM
- CC(C)C[C@H](NC(=O)[C@@H](CC(C)C)NC(=O)[C@H](Cc1ccccc1)NC(=O)[C@@H](N)CO)C(=O)N[C@@H](CCCNC(=N)N)C(N)=O [(R)-2-[(S)-2-((S)-2-Amino-3-hydroxy-propionylamino)-3-phenyl-propionylamino]-4-methyl-pentanoic acid [(S)-1-((S)-1-carbamoyl-4-guanidino-butylcarbamoyl)-3-methyl-butyl]-amide] — higher, > 800 µM
- CC(=O)N[C@@H](Cc1ccccc1)C(=O)N[C@@H](CC(C)C)C(=O)N[C@@H](CC(C)C)C(=O)N[C@@H](CCCNC(=N)N)C(N)=O [(S)-2-((S)-2-Acetylamino-3-phenyl-propionylamino)-4-methyl-pentanoic acid [(S)-1-((S)-1-carbamoyl-4-guanidino-butylcarbamoyl)-3-methyl-butyl]-amide] (Ac-FLLR-NH2) — 400-fold higher, 200 µM
- CC(C)C[C@H](NC(=O)[C@H](CC(C)C)NC(=O)[C@@H](N)Cc1ccccc1)C(=O)N[C@@H](CCCNC(=N)N)C(N)=O [(S)-2-((S)-2-Amino-3-phenyl-propionylamino)-4-methyl-pentanoic acid [(S)-1-((S)-1-carbamoyl-4-guanidino-butylcarbamoyl)-3-methyl-butyl]-amide] (H-FLLR-NH2) — higher, > 800 µM
- CC(C)C[C@H](NC(=O)[C@H](CC(C)C)NC(=O)[C@H](Cc1ccc(F)cc1)NC(=O)[C@H](C)N)C(=O)N[C@@H](CCCCNC(=N)N)C(N)=O [(S)-2-((S)-2-{(S)-2-[(S)-2-((S)-2-Amino-propionylamino)-3-(4-fluoro-phenyl)-propionylamino]-4-methyl-pentanoylamino}-4-methyl-pentanoylamino)-6-guanidino-hexanoic acid amide] (H-A[Phe(4-F)]LL[hArg]-NH2) — 4.2-fold lower, 0.12 µM
- CC(C)C[C@H](NC(=O)[C@H](CC(C)C)NC(=O)[C@H](Cc1ccccc1)NC(=O)[C@@H](N)CCCNC(=N)N)C(=O)N[C@@H](CCCNC(=N)N)C(N)=O [(S)-2-Amino-5-guanidino-pentanoic acid ((S)-1-{(S)-1-[(S)-1-((S)-1-carbamoyl-4-guanidino-butylcarbamoyl)-3-methyl-butylcarbamoyl]-3-methyl-butylcarbamoyl}-2-phenyl-ethyl)-amide] (H-RFLLR-NH2) — higher, > 1200 µM
- NC(=O)[C@H](Cc1ccccc1)NC(=O)[C@@H](N)CO [(S)-2-Amino-N-((S)-1-carbamoyl-2-phenyl-ethyl)-3-hydroxy-propionamide] — higher, > 800 µM
- CC(C)C[C@H](NC(=O)[C@H](CC(C)C)NC(=O)[C@@H](Cc1ccccc1)NC(=O)[C@@H](N)CO)C(=O)N[C@@H](CCCNC(=N)N)C(N)=O [(S)-2-[(R)-2-((S)-2-Amino-3-hydroxy-propionylamino)-3-phenyl-propionylamino]-4-methyl-pentanoic acid [(S)-1-((S)-1-carbamoyl-4-guanidino-butylcarbamoyl)-3-methyl-butyl]-amide] — higher, > 800 µM
- CC(C)C[C@H](NC(=O)[C@H](CC(C)C)NC(=O)[C@H](Cc1ccccc1)NC(=O)C(C)(C)N)C(=O)N[C@@H](CCCNC(=N)N)C(N)=O [(S)-2-[(S)-2-(2-Amino-2-methyl-propionylamino)-3-phenyl-propionylamino]-4-methyl-pentanoic acid [(S)-1-((S)-1-carbamoyl-4-guanidino-butylcarbamoyl)-3-methyl-butyl]-amide] (H-[Aib]FLLR-NH2) — 830-fold higher, 415 µM
- CC(C)C[C@H](NC(=O)[C@H](CC(C)C)NC(=O)[C@H](Cc1ccccc1)NC(=O)CN)C(=O)N[C@@H](CCCNC(=N)N)C(N)=O [(S)-2-[(S)-2-(2-Amino-acetylamino)-3-phenyl-propionylamino]-4-methyl-pentanoic acid [(S)-1-((S)-1-carbamoyl-4-guanidino-butylcarbamoyl)-3-methyl-butyl]-amide] (H-GFLLR-NH2) — 2.4-fold higher, 1.2 µM
- CC(C)C[C@H](NC(=O)[C@H](CC(C)C)NC(=O)[C@H](Cc1ccccc1)NC(=O)CCCN)C(=O)N[C@@H](CCCNC(=N)N)C(N)=O [(S)-2-[(S)-2-(4-Amino-butyrylamino)-3-phenyl-propionylamino]-4-methyl-pentanoic acid [(S)-1-((S)-1-carbamoyl-4-guanidino-butylcarbamoyl)-3-methyl-butyl]-amide] (H-[GABA]FLLR-NH2) — 1500-fold higher, 730 µM
- CC(C)C[C@H](NC(=O)[C@H](CC(C)C)NC(=O)[C@H](Cc1ccccc1)NC(=O)[C@H](N)CO)C(=O)N[C@@H](CCCNC(=N)N)C(N)=O [(S)-2-[(S)-2-((R)-2-Amino-3-hydroxy-propionylamino)-3-phenyl-propionylamino]-4-methyl-pentanoic acid [(S)-1-((S)-1-carbamoyl-4-guanidino-butylcarbamoyl)-3-methyl-butyl]-amide] — 1600-fold higher, 800 µM
- CC(C)C[C@H](NC(=O)[C@H](Cc1ccccc1)NC(=O)[C@@H](N)CO)C(=O)N[C@H](CC(C)C)C(=O)N[C@@H](CCCNC(=N)N)C(N)=O [(S)-2-[(S)-2-((S)-2-Amino-3-hydroxy-propionylamino)-3-phenyl-propionylamino]-4-methyl-pentanoic acid [(R)-1-((S)-1-carbamoyl-4-guanidino-butylcarbamoyl)-3-methyl-butyl]-amide] — 1000-fold higher, 500 µM
- CC(C)C[C@H](NC(=O)[C@H](Cc1ccccc1)NC(=O)[C@@H](N)CO)C(=O)N[C@@H](CC(C)C)C(=O)N[C@H](CCCNC(=N)N)C(N)=O [(S)-2-[(S)-2-((S)-2-Amino-3-hydroxy-propionylamino)-3-phenyl-propionylamino]-4-methyl-pentanoic acid [(S)-1-((R)-1-carbamoyl-4-guanidino-butylcarbamoyl)-3-methyl-butyl]-amide] — 220-fold higher, 109 µM
- CC(C)C[C@H](NC(=O)[C@H](CC(C)C)NC(=O)[C@H](Cc1ccccc1)NC(=O)[C@@H](N)CO)C(=O)N[C@@H](CCCNC(=N)N)C(N)=O [(S)-2-[(S)-2-((S)-2-Amino-3-hydroxy-propionylamino)-3-phenyl-propionylamino]-4-methyl-pentanoic acid [(S)-1-((S)-1-carbamoyl-4-guanidino-butylcarbamoyl)-3-methyl-butyl]-amide] — 2-fold higher, 1 µM
- CC(C)C[C@H](NC(=O)[C@H](Cc1ccccc1)NC(=O)[C@@H](N)CO)C(=O)N[C@@H](C)C(=O)N[C@@H](CCCNC(=N)N)C(N)=O [(S)-2-[(S)-2-((S)-2-Amino-3-hydroxy-propionylamino)-3-phenyl-propionylamino]-4-methyl-pentanoic acid [(S)-1-((S)-1-carbamoyl-4-guanidino-butylcarbamoyl)-ethyl]-amide] (H-SFLAR-NH2) — 30-fold higher, 15 µM
- CC(C)C[C@H](NC(=O)[C@H](CC(C)C)NC(=O)[C@H](Cc1ccccc1)NC(=O)[C@@H](N)CO)C(=O)N[C@@H](C)C(N)=O [(S)-2-[(S)-2-((S)-2-Amino-3-hydroxy-propionylamino)-3-phenyl-propionylamino]-4-methyl-pentanoic acid [(S)-1-((S)-1-carbamoyl-ethylcarbamoyl)-3-methyl-butyl]-amide] (H-SFLLA-NH2) — 140-fold higher, 70 µM
- CC(C)C[C@H](NC(=O)[C@H](C)NC(=O)[C@@H](N)CO)C(=O)N[C@@H](CC(C)C)C(=O)N[C@@H](CCCNC(=N)N)C(N)=O [(S)-2-[(S)-2-((S)-2-Amino-3-hydroxy-propionylamino)-propionylamino]-4-methyl-pentanoic acid [(S)-1-((S)-1-carbamoyl-4-guanidino-butylcarbamoyl)-3-methyl-butyl]-amide] (H-SALLR-NH2) — higher, > 800 µM
- CC(C)C[C@H](NC(=O)[C@H](CC(C)C)NC(=O)[C@@H](NC(=O)[C@H](C)N)c1ccccc1)C(=O)N[C@@H](CCCNC(=N)N)C(N)=O [(S)-2-[(S)-2-((S)-2-Amino-propionylamino)-2-phenyl-acetylamino]-4-methyl-pentanoic acid [(S)-1-((S)-1-carbamoyl-4-guanidino-butylcarbamoyl)-3-methyl-butyl]-amide] (H-A[Phg]LLR-NH2) — higher, > 800 µM
- CC(C)C[C@H](NC(=O)[C@H](CC(C)C)NC(=O)[C@H](Cc1ccc(Cl)cc1)NC(=O)[C@H](C)N)C(=O)N[C@@H](CCCNC(=N)N)C(N)=O [(S)-2-[(S)-2-((S)-2-Amino-propionylamino)-3-(4-chloro-phenyl)-propionylamino]-4-methyl-pentanoic acid [(S)-1-((S)-1-carbamoyl-4-guanidino-butylcarbamoyl)-3-methyl-butyl]-amide] (H-A[Phe(4-Cl)]LLR-NH2) — within 1.5-fold, 0.7 µM
- CC(C)C[C@H](NC(=O)[C@H](Cc1ccc(F)cc1)NC(=O)[C@H](C)N)C(=O)N[C@@H](CC1CCCCC1)C(=O)N[C@@H](CCCNC(=N)N)C(N)=O [(S)-2-[(S)-2-((S)-2-Amino-propionylamino)-3-(4-fluoro-phenyl)-propionylamino]-4-methyl-pentanoic acid [(S)-1-((S)-1-carbamoyl-4-guanidino-butylcarbamoyl)-2-cyclohexyl-ethyl]-amide] (H-A[Phe(4-F)]L[Cha]R-NH2) — 3.6-fold lower, 0.14 µM
- CC(C)C[C@H](NC(=O)[C@H](CC(C)C)NC(=O)[C@H](Cc1ccc(F)cc1)NC(=O)[C@H](C)N)C(=O)N[C@@H](CCCNC(=N)N)C(N)=O [(S)-2-[(S)-2-((S)-2-Amino-propionylamino)-3-(4-fluoro-phenyl)-propionylamino]-4-methyl-pentanoic acid [(S)-1-((S)-1-carbamoyl-4-guanidino-butylcarbamoyl)-3-methyl-butyl]-amide] (H-A[Phe(4-F)]LLR-NH2) — 2.5-fold lower, 0.2 µM
